The values below come from patent US20150065717A1, “NIPECOTIC ACID DERIVATIVE AND USE THEREOF FOR MEDICAL PURPOSES” (Toray Industries, Inc., priority 2012, published 2015).

The target of series [1] is T1, recombinant human sEH (Homo sapiens, UniProt P34913).
T1 construct: purchased Cayman
T1 sequence (P34913 1-555): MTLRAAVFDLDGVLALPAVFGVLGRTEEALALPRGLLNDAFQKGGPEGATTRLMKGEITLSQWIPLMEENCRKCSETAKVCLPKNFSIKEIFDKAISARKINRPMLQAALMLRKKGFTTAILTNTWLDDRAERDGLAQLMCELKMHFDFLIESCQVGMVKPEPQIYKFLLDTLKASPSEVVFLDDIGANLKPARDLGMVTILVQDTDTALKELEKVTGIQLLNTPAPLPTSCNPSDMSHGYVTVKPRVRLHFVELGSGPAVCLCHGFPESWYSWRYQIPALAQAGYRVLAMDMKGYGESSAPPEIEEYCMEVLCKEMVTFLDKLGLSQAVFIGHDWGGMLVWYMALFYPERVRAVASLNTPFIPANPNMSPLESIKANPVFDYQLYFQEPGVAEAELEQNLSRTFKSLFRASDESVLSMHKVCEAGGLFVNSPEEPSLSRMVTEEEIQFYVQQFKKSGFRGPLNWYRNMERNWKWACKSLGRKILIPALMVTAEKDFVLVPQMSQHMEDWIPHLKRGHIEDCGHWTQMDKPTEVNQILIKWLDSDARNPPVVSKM
As to the kind of experiment: In vitro evaluation test for sEH inhibitory activity. It counts as biochemical. The conditions noted are these: recombinant human sEH 0.026 μg/mL, fluorescent substrate 6.25 μmol/L, room temperature. The procedure: According to the method described in a known document (Analytical Biochemistry, 2005, vol. 343, p. 66-75), the sEH inhibitory activity of each nipecotic acid derivative (I) or a pharmaceutically acceptable salt thereof was evaluated using human sEH.
A recombinant human sEH (final concentration, 0.026 μg/mL; Cayman) was incubated with each test compound in 25 mM Bis-Tris-HCl buffer (pH 7.0) supplemented with 0.1 mg/mL BSA at room temperature for 30 minutes. Thereafter, cyano(6-methoxynaphthalen-2-yl)methyl 2-(3-phenyloxiran-2-yl)acetate (final concentration, 6.25 μmol/L; Cayman) was added thereto as a fluorescent substrate, and the resulting mixture was incubated at room temperature for 20 minutes. The reaction was then stopped by addition of ZnSO4 (final concentration, 0.2 mol/L), and the fluorescence intensity was measured (Fusion α (Packard); Excitation: 330 nm, Emission:485 nm).
The fluorescence intensity observed with addition of neither sEH nor a test compound was regarded as the sEH enzymatic reaction rate of 0%, and the fluorescence intensity observed with addition of sEH but without addition of a test compound was regarded as the sEH enzymatic reaction rate of 100%. From the obtained fluorescence intensity, the sEH enzymatic reaction rate of each test compound was calculated to determine IC50.

The test system of series [2] is rat monocrotaline-administered pulmonary hypertension model. As to the kind of experiment: Rat monocrotaline-administered pulmonary hypertension model, administration from day of monocrotaline. The class given is in vivo, rat (Wistar strain). The conditions noted are these: for heart rate vs pulmonary hypertension control group / systemic systolic pressure vs pulmonary hypertension control group: Dunnett's test; for right ventricular systolic pressure vs pulmonary hypertension control group / right ventricular weight ratio vs pulmonary hypertension control group: Dunnett's test p<0.05. The procedure: Example Compound 1 or 2 was administered to a rat monocrotaline-administered pulmonary hypertension model (Journal of Pharmacological Sciences, 2009, vol. 111, p. 235-243), and the therapeutic effect of the nipecotic acid derivative (I) or a pharmaceutically acceptable salt thereof on pulmonary hypertension was evaluated.
Rats (Wistar strain, male, 5 weeks old; JAPAN SLC, Inc.) with pulmonary hypertension induced by subcutaneous administration of an aqueous monocrotaline (Sigma Corporation) solution (60 mg/kg) to the back were provided as “group with induced pulmonary hypertension”. On the other hand, rats to which water for injection was similarly administered were provided as “normal group”.
To rats in the group with induced pulmonary hypertension, Example Compound 1 (3, 10 or 30 mg/kg) or a positive control compound tadalafil (10 mg/kg) was orally administered once per day for 24 days from the day of administration of monocrotaline. The Example Compound 1 and tadalafil were used as suspensions in 0.5% aqueous methyl cellulose solution supplemented with 0.5% Tween 80. The groups in which Example Compound 1 was administered at doses of 3, 10 and 30 mg/kg were provided as “Example Compound 1 (3 mg/kg)-administered group”, “Example Compound 1 (10 mg/kg)-administered group” and “Example Compound 1 (30 mg/kg)-administered group”, respectively. The group in which tadalafil was administered at a dose of 10 mg/kg was provided as “tadalafil-administered group”. In addition, for comparative control, 0.5% aqueous methyl cellulose solution supplemented with 0.5% Tween 80 was similarly administered to rats in the group with induced pulmonary hypertension, to provide “pulmonary hypertension control group”. Similarly, 0.5% aqueous methyl cellulose solution supplemented with 0.5% Tween 80 was administered in the normal group.
On the next day of the last administration of the test substance, the right ventricular systolic pressure, systemic systolic pressure and heart rate were measured. The measurement of the right ventricular systolic pressure and the systemic systolic pressure was carried out using an amplifier for blood pressure measurement (Nihon Kohden Corporation). The measurement of the heart rate was carried out using an instant heart rate meter unit (Nihon Kohden Corporation). On the same day, the body weight, lung wet weight, and wet weights of the right ventricle, left ventricle and septum were measured to determine the right ventricular weight ratio (right ventricular weight/(septum weight+left ventricular weight)) and the lung weight ratio (lung weight/body weight).
The lungs were stored by immersion in formalin after measurement of the wet weight. The formalin-fixed lungs were embedded in paraffin, and sections were prepared. Immunostained tissue samples were prepared using an anti-sEH antibody to study expression of sEH. Pathological specimens were prepared by Elastica-van Gieson staining to study thickening of pulmonary arteries. Immunostained tissue samples were prepared using an anti-PCNA antibody to study cell growth. The right ventricle was stored by immersion in formalin after measurement of the wet weight. The formalin-fixed right ventricle was embedded in paraffin, and sections were prepared. Pathological specimens were prepared by HE staining to study myocardial hypertrophy.
The removed lungs were homogenized in a buffer, and 14,15-EET and 14,15-DHET were extracted. The extracted 14,15-EET was hydrolyzed for conversion to 14,15-DHET, and the 14,15-DHET concentration was measured by the ELISA method. The increase in the concentration of 14,15-DHET due to the hydrolysis was regarded as the 14,15-EET concentration, and the 14,15-EET/14,15-DHET ratio was determined.
FIGS. 4 to 6 show the results on the right ventricular systolic pressure, right ventricular weight ratio and lung weight ratio determined on the next day of the last administration of the test compound. […]

Where [3] appears, read: 3 mg/kg orally once per day for 24 days.
The mark [4] stands for this setting: 10 mg/kg orally once per day for 24 days from day of monocrotaline.
Where [5] appears, read: 10 mg/kg orally once per day for 24 days.
Where [6] appears, read: 30 mg/kg orally once per day for 24 days from day of monocrotaline.
[7] abbreviates: 30 mg/kg orally once per day for 24 days.

In general, IC50 refers to the concentration that gives 50% inhibition. In the case of `CCC(=O)NC1(C(=O)N2CCC[C@@H](C(=O)NCc3ccc(C#N)cc3OC(F)(F)F)C2)CCC1` [Example Compound 1, (R)—N-(4-cyano-2-(trifluoromethoxy)benzyl)-1-(1-propionamidocyclobutanecarbonyl)piperidine-3-carboxamide], the half-maximal inhibitory concentration (IC50) in series [1] worked out at 1.1 nM. In series [2] (setting [3]), the “heart rate vs pulmonary hypertension control group” value is “not significantly different” and the “systemic systolic pressure vs pulmonary hypertension control group” value was “not significantly different”. In series [2] (3 mg/kg, Elastica-van Gieson staining), the “thickening of pulmonary arteries in lungs vs pulmonary hypertension control group” value is listed as “less thickened pulmonary arteries”. The “myocardial hypertrophy of the right ventricle vs pulmonary hypertension control group” value in series [2] (3 mg/kg, HE staining) is recorded as “less myocardial hypertrophy”. In addition, the “cell growth in lungs vs pulmonary hypertension control group” value in series [2] (3 mg/kg, anti-PCNA immunostaining) is reported as “less cell growth”. Further, in series [2] (setting [4]), the “lung weight ratio vs pulmonary hypertension control group” value is given as “statistically significantly lower”, the “right ventricular systolic pressure vs pulmonary hypertension control group” value is listed as “statistically significantly lower” and the “right ventricular weight ratio vs pulmonary hypertension control group” value (“right ventricular weight ratio” below) is “statistically significantly lower”. In series [2] (setting [5]), the “heart rate vs pulmonary hypertension control group” value is recorded as “not significantly different” and the “systemic systolic pressure vs pulmonary hypertension control group” value is reported as “not significantly different”. For the same molecule, in series [2] (10 mg/kg, ELISA), the “14,15-EET/14,15-DHET ratio in lungs vs pulmonary hypertension control group” value is on record as “higher”. Further, in series [2] (setting [6]), the “right ventricular systolic pressure vs pulmonary hypertension control group” value is on record as “statistically significantly lower” and the “right ventricular weight ratio” value was “statistically significantly lower”. In series [2] (setting [7]), the “heart rate vs pulmonary hypertension control group” value is recorded as “not significantly different” and the “systemic systolic pressure vs pulmonary hypertension control group” value was “not significantly different”.

Consider `CC(C)(NS(C)(=O)=O)C(=O)N1CCC[C@@H](C(=O)NCc2ccc(C#N)cc2OC(F)(F)F)C1` [Example Compound 2, (R)—N-(4-cyano-2-(trifluoromethoxy)benzyl)-1-(2-methyl-2-(methylsulfonamido)propanoyl)piperidine-3-carboxamide], for which the half-maximal inhibitory concentration (IC50) in series [1] worked out at 2.1 nM. Also, in series [2] (setting [4]), the “lung weight ratio vs pulmonary hypertension control group” value is listed as “lower”, the “right ventricular systolic pressure vs pulmonary hypertension control group” value is recorded as “statistically significantly lower” and the “right ventricular weight ratio” value is recorded as “statistically significantly lower”. Moreover, in series [2] (setting [5]), the “heart rate vs pulmonary hypertension control group” value is “not significantly different” and the “systemic systolic pressure vs pulmonary hypertension control group” value is recorded as “not significantly different”.
